Measurements reported in the NIST ThermoML archive (doi:10.1021/je8009545).

How the values were obtained:
[1] = Gas; for mass density: Gas pipette; for viscosity: Oscillating disk viscometry
[2] = xn = mol fraction of the nth substance listed; conditions: Gas, x2 = 0; for mass density: Gas pipette; for viscosity: Oscillating disk viscometry

N#N [nitrogen]
[1]
Conditions | mass density [kg/m3] | viscosity [mPa·s]
298.15 K, 101 kPa | 1.178 | 0.01786
298.15 K, 240 kPa | 2.833 | 0.01788
298.15 K, 672 kPa | 7.705 | 0.01794
323.15 K, 101 kPa | 0.858 | 0.01901
323.15 K, 290 kPa | 3.114 | 0.01904
323.15 K, 466 kPa | 4.925 | 0.01906
323.15 K, 856 kPa | 9.024 | 0.01911
348.15 K, 101 kPa | 0.761 | 0.0201
348.15 K, 518 kPa | 5.043 | 0.02016
348.15 K, 1010 kPa | 9.8 | 0.02022
348.15 K, 2028 kPa | 19.63 | 0.02037
373.15 K, 101 kPa | 0.633 | 0.02116
373.15 K, 495 kPa | 4.527 | 0.02121
373.15 K, 1000 kPa | 8.832 | 0.02126
373.15 K, 2006 kPa | 18.01 | 0.0214
373.15 K, 2930 kPa | 26.15 | 0.02152
373.15 K, 3985 kPa | 35.64 | 0.02168
373.15 K, 4966 kPa | 44.7 | 0.02184
398.15 K, 101 kPa | 0.727 | 0.02219
398.15 K, 520 kPa | 4.329 | 0.02222
398.15 K, 1003 kPa | 8.657 | 0.02228
398.15 K, 2000 kPa | 16.49 | 0.0224
398.15 K, 3473 kPa | 28.94 | 0.02259
398.15 K, 4849 kPa | 40.28 | 0.02278
423.15 K, 101 kPa | 0.568 | 0.02318
423.15 K, 550 kPa | 4.226 | 0.02322
423.15 K, 1032 kPa | 8.294 | 0.02328
423.15 K, 2012 kPa | 15.86 | 0.02338
423.15 K, 3435 kPa | 26.9 | 0.02354
423.15 K, 4832 kPa | 37.69 | 0.02373

N#N [nitrogen] + COC
[2]
Conditions | mass density [kg/m3] | viscosity [mPa·s]
298.15 K, 101 kPa | 1.178 | 0.01786
298.15 K, 240 kPa | 2.833 | 0.01788
298.15 K, 672 kPa | 7.705 | 0.01794
323.15 K, 101 kPa | 0.858 | 0.01901
323.15 K, 290 kPa | 3.114 | 0.01904
323.15 K, 466 kPa | 4.925 | 0.01906
323.15 K, 856 kPa | 9.024 | 0.01911
348.15 K, 101 kPa | 0.761 | 0.0201
348.15 K, 518 kPa | 5.043 | 0.02016
348.15 K, 1010 kPa | 9.8 | 0.02022
348.15 K, 2028 kPa | 19.63 | 0.02037
373.15 K, 101 kPa | 0.633 | 0.02116
373.15 K, 495 kPa | 4.527 | 0.02121
373.15 K, 1000 kPa | 8.832 | 0.02126
373.15 K, 2006 kPa | 18.01 | 0.0214
373.15 K, 2930 kPa | 26.15 | 0.02152
373.15 K, 3985 kPa | 35.64 | 0.02168
373.15 K, 4966 kPa | 44.7 | 0.02184
398.15 K, 101 kPa | 0.727 | 0.02219
398.15 K, 520 kPa | 4.329 | 0.02222
398.15 K, 1003 kPa | 8.657 | 0.02228
398.15 K, 2000 kPa | 16.49 | 0.0224
398.15 K, 3473 kPa | 28.94 | 0.02259
398.15 K, 4849 kPa | 40.28 | 0.02278
423.15 K, 101 kPa | 0.568 | 0.02318
423.15 K, 550 kPa | 4.226 | 0.02322
423.15 K, 1032 kPa | 8.294 | 0.02328
423.15 K, 2012 kPa | 15.86 | 0.02338
423.15 K, 3435 kPa | 26.9 | 0.02354
423.15 K, 4832 kPa | 37.69 | 0.02373
